Test results: publication PMC3145970, “Specific CLK Inhibitors from a Novel Chemotype for Regulation of Alternative Splicing” (Chemistry & Biology, 2011)
Like-named read-outs stand apart in the source and are kept apart here.

Columns and labels:
Assay in all cases: Thermal stability shift assay
Type in all cases: binding
CDK8 = CDK8 (Homo sapiens, UniProt P49336); settings: read-out: Tm shift CDK8
Experimental: (§1) Thermal denaturation experiments were carried out in an Mx3005p real-time PCR machine (Agilent) using a protein concentration of 2 μM and an inhibitor concentration of 10 μM. Samples were buffered in 10 mM HEPES (pH 7.5), 500 mM NaCl and a 1:1000 dilution of SyproOrange (Invitrogen). The assay and data evaluation were carried out as described ([Bullock et al., 2005])

CaMK2a = CaMK2a (Homo sapiens, UniProt Q9UQM7); settings: read-out: Tm shift CaMK2a
Experimental: as §1

CaMK4 = biological target: T1, CaMK4 (Homo sapiens, UniProt Q16566); settings: read-out: Tm shift CaMK4
T1 sequence (Q16566 1-473): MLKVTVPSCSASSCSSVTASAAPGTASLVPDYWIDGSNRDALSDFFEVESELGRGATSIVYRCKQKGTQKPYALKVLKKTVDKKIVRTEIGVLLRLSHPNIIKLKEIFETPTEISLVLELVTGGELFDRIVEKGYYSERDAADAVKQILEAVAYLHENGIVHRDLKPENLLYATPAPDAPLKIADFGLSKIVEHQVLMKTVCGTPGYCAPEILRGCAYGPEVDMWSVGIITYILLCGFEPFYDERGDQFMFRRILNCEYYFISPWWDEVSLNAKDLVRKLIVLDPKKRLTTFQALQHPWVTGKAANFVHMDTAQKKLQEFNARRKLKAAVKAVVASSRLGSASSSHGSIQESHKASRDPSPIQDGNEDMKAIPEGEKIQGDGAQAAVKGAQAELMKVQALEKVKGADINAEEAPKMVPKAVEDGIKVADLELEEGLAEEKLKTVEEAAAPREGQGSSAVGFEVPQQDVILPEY
Experimental: as §1

CaMKK1 = CaMKK1 (Homo sapiens, UniProt Q8N5S9); settings: read-out: Tm shift CaMKK1
Experimental: as §1

FES = biological target: T2, FES (Homo sapiens, UniProt P07332); settings: read-out: Tm shift FES
T2 construct: purchased in-house (SGC Oxford thermal shift panel)
Experimental: as §1

FGR = biological target: T3, FGR (Homo sapiens, UniProt P09769); settings: read-out: Tm shift FGR
T3 construct: purchased in-house (SGC Oxford thermal shift panel)
Experimental: as §1

JNK1 = biological target: T4, JNK1 (Homo sapiens, UniProt P45983); settings: read-out: Tm shift JNK1
T4 construct: purchased in-house (SGC Oxford thermal shift panel)
Experimental: as §1

LOK = biological target: T5, LOK (Homo sapiens, UniProt O94804); settings: read-out: Tm shift LOK
T5 construct: purchased in-house (SGC Oxford thermal shift panel)
Experimental: as §1

MAP2K6 = biological target: T6, MAP2K6 (Homo sapiens, UniProt P52564); settings: read-out: Tm shift MAP2K6
T6 construct: purchased in-house (SGC Oxford thermal shift panel)
T6 sequence (P52564 1-334): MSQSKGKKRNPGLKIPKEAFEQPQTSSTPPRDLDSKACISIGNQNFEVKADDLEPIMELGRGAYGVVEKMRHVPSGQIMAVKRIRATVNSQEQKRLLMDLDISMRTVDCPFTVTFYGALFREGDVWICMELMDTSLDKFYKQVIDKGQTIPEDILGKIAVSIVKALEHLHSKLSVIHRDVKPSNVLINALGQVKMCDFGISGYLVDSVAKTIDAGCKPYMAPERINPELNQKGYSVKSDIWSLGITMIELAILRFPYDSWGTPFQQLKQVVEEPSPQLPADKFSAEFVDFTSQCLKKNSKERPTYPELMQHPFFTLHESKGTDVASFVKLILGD
Experimental: as §1

PIM2 = PIM2 (Homo sapiens, UniProt Q9P1W9); settings: read-out: Tm shift PIM2
Experimental: as §1

RHOK = biological target: T7, RHOK (Homo sapiens, UniProt Q15835); settings: read-out: Tm shift RHOK
T7 sequence (Q15835 1-563): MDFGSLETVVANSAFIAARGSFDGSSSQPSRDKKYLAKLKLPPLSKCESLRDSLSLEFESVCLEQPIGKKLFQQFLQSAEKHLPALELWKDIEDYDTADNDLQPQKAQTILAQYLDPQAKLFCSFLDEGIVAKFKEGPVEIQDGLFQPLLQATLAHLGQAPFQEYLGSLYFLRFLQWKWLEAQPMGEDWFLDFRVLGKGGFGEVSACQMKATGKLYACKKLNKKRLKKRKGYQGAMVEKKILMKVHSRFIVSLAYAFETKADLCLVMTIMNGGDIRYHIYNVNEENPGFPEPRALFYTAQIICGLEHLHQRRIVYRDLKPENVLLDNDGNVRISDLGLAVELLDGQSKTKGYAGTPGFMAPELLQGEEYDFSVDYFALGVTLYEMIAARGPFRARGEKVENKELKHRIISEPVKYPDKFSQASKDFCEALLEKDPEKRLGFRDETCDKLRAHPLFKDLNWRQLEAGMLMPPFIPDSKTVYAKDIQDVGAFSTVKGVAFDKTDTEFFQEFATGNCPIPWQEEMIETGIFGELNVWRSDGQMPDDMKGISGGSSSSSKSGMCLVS
Experimental: as §1

RSK3~C = biological target: T8, RSK3~C (Homo sapiens, UniProt Q15349); settings: read-out: Tm shift RSK3~C
T8 construct: RSK3~C 4.5 8.9 0.7 0.4 0.5 0.1 0.4
Experimental: as §1

SRPK2 = SRPK2 (Homo sapiens, UniProt P78362); settings: read-out: Tm shift SRPK2
Experimental: as §1

smMLCK = smMLCK (Homo sapiens, UniProt Q15746); settings: read-out: Tm shift smMLCK
Experimental: as §1

T5 sequence (O94804 whole entry): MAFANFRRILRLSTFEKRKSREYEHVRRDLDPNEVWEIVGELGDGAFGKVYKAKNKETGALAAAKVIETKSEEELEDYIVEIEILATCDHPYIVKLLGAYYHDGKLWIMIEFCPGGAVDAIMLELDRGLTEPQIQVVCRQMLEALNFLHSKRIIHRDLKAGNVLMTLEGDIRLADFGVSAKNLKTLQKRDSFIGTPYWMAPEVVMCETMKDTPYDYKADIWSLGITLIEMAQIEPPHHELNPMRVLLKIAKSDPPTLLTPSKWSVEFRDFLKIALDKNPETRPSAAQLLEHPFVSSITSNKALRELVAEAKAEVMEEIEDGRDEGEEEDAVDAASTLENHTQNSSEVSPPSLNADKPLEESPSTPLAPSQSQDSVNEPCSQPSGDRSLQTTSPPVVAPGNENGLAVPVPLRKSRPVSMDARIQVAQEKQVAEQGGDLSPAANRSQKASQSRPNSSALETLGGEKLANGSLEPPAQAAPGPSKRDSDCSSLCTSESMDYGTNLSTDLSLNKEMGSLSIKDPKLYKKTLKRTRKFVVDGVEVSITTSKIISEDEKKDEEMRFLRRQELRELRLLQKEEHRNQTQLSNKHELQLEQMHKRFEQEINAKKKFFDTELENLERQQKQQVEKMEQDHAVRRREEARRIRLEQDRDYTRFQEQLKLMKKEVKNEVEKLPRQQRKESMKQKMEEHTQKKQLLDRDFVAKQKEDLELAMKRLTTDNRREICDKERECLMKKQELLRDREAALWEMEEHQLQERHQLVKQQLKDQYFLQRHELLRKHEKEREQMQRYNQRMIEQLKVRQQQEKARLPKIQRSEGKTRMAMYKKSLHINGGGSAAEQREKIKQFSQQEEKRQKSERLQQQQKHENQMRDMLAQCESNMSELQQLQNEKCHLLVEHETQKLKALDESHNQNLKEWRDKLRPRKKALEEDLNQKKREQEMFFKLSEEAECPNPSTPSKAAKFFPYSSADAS
smMLCK, sequence (Q15746 whole entry): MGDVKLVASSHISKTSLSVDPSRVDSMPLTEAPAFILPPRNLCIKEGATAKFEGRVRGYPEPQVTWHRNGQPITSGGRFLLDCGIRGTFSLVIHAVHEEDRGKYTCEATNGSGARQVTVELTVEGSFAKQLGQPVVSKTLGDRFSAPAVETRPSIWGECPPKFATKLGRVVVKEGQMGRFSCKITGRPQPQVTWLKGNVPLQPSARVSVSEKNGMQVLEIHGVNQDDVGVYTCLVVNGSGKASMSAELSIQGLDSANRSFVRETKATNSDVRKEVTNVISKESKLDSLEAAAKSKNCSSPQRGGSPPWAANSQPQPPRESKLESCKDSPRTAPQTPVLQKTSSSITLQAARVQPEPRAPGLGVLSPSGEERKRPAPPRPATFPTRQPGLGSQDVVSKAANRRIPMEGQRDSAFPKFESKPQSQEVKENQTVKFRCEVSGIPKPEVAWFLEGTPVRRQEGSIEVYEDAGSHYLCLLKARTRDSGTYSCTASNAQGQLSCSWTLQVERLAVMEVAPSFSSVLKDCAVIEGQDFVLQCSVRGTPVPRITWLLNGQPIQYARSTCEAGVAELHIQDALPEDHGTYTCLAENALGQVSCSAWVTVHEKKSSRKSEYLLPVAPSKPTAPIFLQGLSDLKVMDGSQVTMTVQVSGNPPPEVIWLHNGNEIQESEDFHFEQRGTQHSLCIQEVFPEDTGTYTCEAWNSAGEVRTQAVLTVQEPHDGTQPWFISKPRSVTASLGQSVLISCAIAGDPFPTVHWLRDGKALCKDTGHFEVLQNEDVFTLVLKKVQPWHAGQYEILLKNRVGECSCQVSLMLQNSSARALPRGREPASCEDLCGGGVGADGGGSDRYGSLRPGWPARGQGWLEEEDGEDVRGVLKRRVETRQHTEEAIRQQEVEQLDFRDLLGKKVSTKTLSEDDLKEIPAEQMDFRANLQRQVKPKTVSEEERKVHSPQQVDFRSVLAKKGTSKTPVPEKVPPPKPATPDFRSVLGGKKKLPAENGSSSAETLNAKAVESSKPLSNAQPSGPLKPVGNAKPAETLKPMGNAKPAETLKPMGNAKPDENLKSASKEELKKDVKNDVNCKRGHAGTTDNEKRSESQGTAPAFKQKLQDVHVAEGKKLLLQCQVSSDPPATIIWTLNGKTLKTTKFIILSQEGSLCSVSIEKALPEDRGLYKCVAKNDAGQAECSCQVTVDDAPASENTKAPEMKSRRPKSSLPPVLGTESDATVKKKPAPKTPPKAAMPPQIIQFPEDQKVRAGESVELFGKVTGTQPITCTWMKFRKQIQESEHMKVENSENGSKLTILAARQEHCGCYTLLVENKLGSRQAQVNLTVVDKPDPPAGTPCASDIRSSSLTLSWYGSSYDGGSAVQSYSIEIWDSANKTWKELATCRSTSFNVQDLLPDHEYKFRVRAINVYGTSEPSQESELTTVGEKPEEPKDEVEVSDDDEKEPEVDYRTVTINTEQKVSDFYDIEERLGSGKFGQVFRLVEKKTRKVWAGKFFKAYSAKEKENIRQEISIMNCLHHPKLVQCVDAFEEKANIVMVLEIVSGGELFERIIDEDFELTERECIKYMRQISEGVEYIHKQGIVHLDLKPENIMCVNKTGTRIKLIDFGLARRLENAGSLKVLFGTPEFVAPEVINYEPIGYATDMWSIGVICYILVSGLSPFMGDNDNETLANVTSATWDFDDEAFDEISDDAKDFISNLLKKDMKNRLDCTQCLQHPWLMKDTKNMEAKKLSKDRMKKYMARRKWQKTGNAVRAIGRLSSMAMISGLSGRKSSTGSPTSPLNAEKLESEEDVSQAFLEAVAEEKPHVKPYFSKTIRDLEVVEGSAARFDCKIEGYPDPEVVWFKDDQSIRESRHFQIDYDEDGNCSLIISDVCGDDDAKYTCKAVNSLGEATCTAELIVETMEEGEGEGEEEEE
T3 sequence (P09769 whole entry): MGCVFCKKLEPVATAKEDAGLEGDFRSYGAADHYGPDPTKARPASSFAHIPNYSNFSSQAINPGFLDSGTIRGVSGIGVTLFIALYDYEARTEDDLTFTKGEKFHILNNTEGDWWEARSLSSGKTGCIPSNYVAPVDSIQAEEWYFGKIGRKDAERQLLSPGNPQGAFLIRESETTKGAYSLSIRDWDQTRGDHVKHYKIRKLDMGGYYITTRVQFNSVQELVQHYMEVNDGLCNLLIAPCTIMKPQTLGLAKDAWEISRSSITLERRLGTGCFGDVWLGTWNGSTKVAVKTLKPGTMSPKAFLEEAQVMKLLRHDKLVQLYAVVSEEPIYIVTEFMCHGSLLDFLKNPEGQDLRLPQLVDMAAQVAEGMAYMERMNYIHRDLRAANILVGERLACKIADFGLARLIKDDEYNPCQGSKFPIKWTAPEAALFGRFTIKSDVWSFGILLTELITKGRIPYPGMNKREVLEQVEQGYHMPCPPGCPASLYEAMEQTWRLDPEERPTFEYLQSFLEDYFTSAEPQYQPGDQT
CaMKK1, sequence (Q8N5S9 whole entry): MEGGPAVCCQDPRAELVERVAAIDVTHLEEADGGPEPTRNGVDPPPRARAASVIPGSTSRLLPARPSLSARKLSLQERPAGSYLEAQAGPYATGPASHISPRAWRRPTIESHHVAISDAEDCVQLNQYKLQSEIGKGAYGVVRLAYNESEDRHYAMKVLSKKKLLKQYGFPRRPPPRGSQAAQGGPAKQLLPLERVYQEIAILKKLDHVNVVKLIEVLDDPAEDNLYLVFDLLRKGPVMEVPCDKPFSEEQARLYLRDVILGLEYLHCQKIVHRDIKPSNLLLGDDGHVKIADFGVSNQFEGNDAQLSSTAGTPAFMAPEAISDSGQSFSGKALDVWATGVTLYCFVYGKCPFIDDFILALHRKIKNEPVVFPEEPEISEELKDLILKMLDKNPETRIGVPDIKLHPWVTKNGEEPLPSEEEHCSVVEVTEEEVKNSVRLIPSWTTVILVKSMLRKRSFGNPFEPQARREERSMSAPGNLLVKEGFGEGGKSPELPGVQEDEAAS
T4 sequence (P45983 whole entry): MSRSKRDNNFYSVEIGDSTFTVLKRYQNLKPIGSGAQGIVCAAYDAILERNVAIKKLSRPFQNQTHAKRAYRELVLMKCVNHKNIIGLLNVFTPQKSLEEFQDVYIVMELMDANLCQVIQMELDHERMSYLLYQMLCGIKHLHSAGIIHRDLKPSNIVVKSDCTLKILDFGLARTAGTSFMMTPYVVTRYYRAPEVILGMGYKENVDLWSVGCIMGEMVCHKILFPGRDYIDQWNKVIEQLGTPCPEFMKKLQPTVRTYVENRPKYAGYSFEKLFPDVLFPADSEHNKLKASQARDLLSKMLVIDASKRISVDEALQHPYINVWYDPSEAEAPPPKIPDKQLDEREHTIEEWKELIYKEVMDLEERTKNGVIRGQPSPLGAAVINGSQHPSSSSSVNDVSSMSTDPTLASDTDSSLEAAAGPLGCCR
SRPK2, sequence (P78362 whole entry): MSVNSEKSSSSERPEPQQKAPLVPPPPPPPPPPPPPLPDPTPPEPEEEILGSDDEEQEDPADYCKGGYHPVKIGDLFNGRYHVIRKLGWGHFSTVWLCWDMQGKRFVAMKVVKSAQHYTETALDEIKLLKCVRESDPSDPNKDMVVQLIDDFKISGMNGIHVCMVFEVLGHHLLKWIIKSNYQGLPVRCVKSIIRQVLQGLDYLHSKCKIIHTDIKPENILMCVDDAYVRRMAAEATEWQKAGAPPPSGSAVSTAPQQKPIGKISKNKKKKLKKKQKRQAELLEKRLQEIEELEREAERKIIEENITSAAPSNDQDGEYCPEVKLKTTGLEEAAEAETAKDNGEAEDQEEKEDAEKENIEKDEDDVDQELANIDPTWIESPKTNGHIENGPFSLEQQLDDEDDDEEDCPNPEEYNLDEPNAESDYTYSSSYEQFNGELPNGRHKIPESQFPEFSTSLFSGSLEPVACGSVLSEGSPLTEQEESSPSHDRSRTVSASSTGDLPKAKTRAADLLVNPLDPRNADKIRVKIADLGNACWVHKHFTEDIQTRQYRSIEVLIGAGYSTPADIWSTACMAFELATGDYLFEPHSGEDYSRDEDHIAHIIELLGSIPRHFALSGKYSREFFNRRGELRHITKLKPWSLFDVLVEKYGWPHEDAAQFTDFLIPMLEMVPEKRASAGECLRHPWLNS

`CCOC(=O)c1c(C(C#N)=CN(C)C)c2ccc(Cl)c(Cl)c2n1C` (mixture of isomers) [compound 2, (E/Z)-Ethyl 6,7-Dichloro-3-[1-Cyano-2-(Dimethylamino)Vinyl]-1-Methyl-1H-Indole-2-Carboxylate] was tested, and the ΔTm at 10 µM (CDK8; inhibitor 10 μM) was 0.4 °C, the ΔTm at 10 µM (CaMK2a; inhibitor 10 μM) was 1 °C and the ΔTm at 10 µM (CaMK4; inhibitor 10 μM) was 0.2 °C. It also gave a ΔTm at 10 µM (CaMKK1; inhibitor 10 μM) of 0.3 °C, a ΔTm at 10 µM (FES; inhibitor 10 μM) of 0 °C and a ΔTm at 10 µM (FGR; inhibitor 10 μM) of -0.2 °C. The ΔTm at 10 µM (JNK1; inhibitor 10 μM) was 0.1 °C, the ΔTm at 10 µM (LOK; inhibitor 10 μM) was -1.1 °C and the ΔTm at 10 µM (MAP2K6; inhibitor 10 μM) was 0.4 °C. It also gave a ΔTm at 10 µM (PIM2; inhibitor 10 μM) of 0.8 °C, a ΔTm at 10 µM (RHOK; inhibitor 10 μM) of 0.9 °C and a ΔTm at 10 µM (RSK3~C; inhibitor 10 μM) of 0.1 °C. It also gave a ΔTm at 10 µM (SRPK2; inhibitor 10 μM) of -0.1 °C and a ΔTm at 10 µM (smMLCK; inhibitor 10 μM) of 1.1 °C.
Work on `NC1=NC(=O)/C(=C2\CCNC(=O)c3[nH]c(Br)cc32)N1` [Hymenialdisine, hymenialdisine, reference compound] yielded a ΔTm at 10 µM (CDK8; inhibitor 10 μM) of 0.1 °C, a ΔTm at 10 µM (CaMK2a; inhibitor 10 μM) of 0.4 °C and a ΔTm at 10 µM (CaMK4; inhibitor 10 μM) of 0.4 °C. The ΔTm at 10 µM (CaMKK1; inhibitor 10 μM) was 0.2 °C, the ΔTm at 10 µM (FES; inhibitor 10 μM) was 0.7 °C and the ΔTm at 10 µM (FGR; inhibitor 10 μM) was 0.7 °C. It also gave a ΔTm at 10 µM (JNK1; inhibitor 10 μM) of -0.5 °C, a ΔTm at 10 µM (LOK; inhibitor 10 μM) of 4.2 °C and a ΔTm at 10 µM (MAP2K6; inhibitor 10 μM) of 0.6 °C. The ΔTm at 10 µM (PIM2; inhibitor 10 μM) was 3.5 °C, the ΔTm at 10 µM (RHOK; inhibitor 10 μM) was 0.7 °C and the ΔTm at 10 µM (RSK3~C; inhibitor 10 μM) was 4.5 °C. It also gave a ΔTm at 10 µM (SRPK2; inhibitor 10 μM) of -0.2 °C and a ΔTm at 10 µM (smMLCK; inhibitor 10 μM) of 1.9 °C.
With `CCOC(=O)c1c(C(C#N)=CN)c2ccc(Cl)c(Cl)c2n1C` (mixture of isomers) [KH-CB20, (E/Z)-Ethyl 3-(2-Amino-1-Cyanovinyl)-6,7-Dichloro-1-Methyl-1H-Indole-2-Carboxylate] the ΔTm at 10 µM (CDK8) was 1.3 °C, the ΔTm at 10 µM (CaMK2a) was 0.7 °C and the ΔTm at 10 µM (CaMK4) was -0.1 °C. For the same molecule, the ΔTm at 10 µM (CaMKK1) was 0.6 °C, the ΔTm at 10 µM (FES) was -0.3 °C and the ΔTm at 10 µM (FGR) was 0.3 °C. It also gave a ΔTm at 10 µM (JNK1) of 0.2 °C, a ΔTm at 10 µM (LOK) of 3 °C and a ΔTm at 10 µM (MAP2K6) of 0.6 °C. It also gave a ΔTm at 10 µM (PIM2) of 2.1 °C, a ΔTm at 10 µM (RHOK) of 0.3 °C and a ΔTm at 10 µM (RSK3~C) of 0.4 °C. It also gave a ΔTm at 10 µM (SRPK2) of 0.5 °C and a ΔTm at 10 µM (smMLCK) of 0.6 °C.
Molecule `CCOC(=O)c1c(/C(C#N)=C\N)c2ccc(Cl)c(Cl)c2n1C` [KH-CB19, (E)-Ethyl 3-(2-Amino-1-Cyanovinyl)-6,7-Dichloro-1-Methyl-1H-Indole-2-Carboxylate] has a ΔTm at 10 µM (CDK8) of 1.5 °C, a ΔTm at 10 µM (CaMK2a) of 0.5 °C and a ΔTm at 10 µM (CaMK4) of 0.8 °C. The ΔTm at 10 µM (CaMKK1) was -0.1 °C, the ΔTm at 10 µM (FES) was -0.3 °C and the ΔTm at 10 µM (FGR) was -0.3 °C. The ΔTm at 10 µM (JNK1) was 0.9 °C, the ΔTm at 10 µM (LOK) was -0.8 °C and the ΔTm at 10 µM (MAP2K6) was 0.5 °C. It also gave a ΔTm at 10 µM (PIM2) of 2.1 °C, a ΔTm at 10 µM (RHOK) of 0.5 °C and a ΔTm at 10 µM (RSK3~C) of 0.7 °C. It also gave a ΔTm at 10 µM (SRPK2) of 0.1 °C and a ΔTm at 10 µM (smMLCK) of 0.5 °C.
`Cn1c2c(Cl)c(Cl)ccc2c2c(C#N)c[nH]c(=O)c21` [compound 3, 7,8-Dichloro-9-Methyl-1-Oxo-2,9-Dihydro-1H-Pyrido[3,4-b]Indole-4-Carbonitrile] showed a ΔTm at 10 µM (CDK8; inhibitor 10 μM) of 2.5 °C, a ΔTm at 10 µM (CaMK2a; inhibitor 10 μM) of 0.5 °C and a ΔTm at 10 µM (CaMK4; inhibitor 10 μM) of 0.4 °C. It also gave a ΔTm at 10 µM (CaMKK1; inhibitor 10 μM) of 0.4 °C, a ΔTm at 10 µM (FES; inhibitor 10 μM) of 0 °C and a ΔTm at 10 µM (FGR; inhibitor 10 μM) of 0.1 °C. The ΔTm at 10 µM (JNK1; inhibitor 10 μM) was 0.2 °C, the ΔTm at 10 µM (LOK; inhibitor 10 μM) was -0.7 °C and the ΔTm at 10 µM (MAP2K6; inhibitor 10 μM) was 0.1 °C. It also gave a ΔTm at 10 µM (PIM2; inhibitor 10 μM) of 3 °C, a ΔTm at 10 µM (RHOK; inhibitor 10 μM) of 0.9 °C and a ΔTm at 10 µM (RSK3~C; inhibitor 10 μM) of 0.5 °C. The ΔTm at 10 µM (SRPK2; inhibitor 10 μM) was 0.2 °C and the ΔTm at 10 µM (smMLCK; inhibitor 10 μM) was 0.5 °C.
